The values below are quoted from earlier work in US6245354A, “Drug delivery system using galactoxyloglucan” (Dainippon Pharmaceutical Co., Ltd., priority 1996, dated 2001).

For the molecule `CO[C@@]12[C@H](COC(N)=O)C3=C(C(=O)C(C)=C(N)C3=O)N1C[C@@H]1N[C@@H]12` [mitomycin C], the “transfer to systemic circulation” value (administered into the abdominal cavity) is reported as “rapidly transferred to a systemic circulation”. Under “peritoneal tumors, carcinomatous peritonitis, into the abdominal cavity”, the therapeutic effects result is reported as “can not exhibit sufficient therapeutic effects”.
